“Also recorded” adds a separate entry of the source.
Columns and labels:
S100A9 [1] = biological target: T1, S100A9 (Mus musculus, UniProt P31725); test: Irritant contact dermatitis (ICD) mouse model, SPECT/CT; assay type: in vivo, mice; conditions: 66 MBq per mouse i.v.
T1 construct: from tissue; host or cells: living mice (inflamed ear, joints) and explanted mouse heart, aorta and lungs
T1 sequence (P31725 2-113 limits assumed): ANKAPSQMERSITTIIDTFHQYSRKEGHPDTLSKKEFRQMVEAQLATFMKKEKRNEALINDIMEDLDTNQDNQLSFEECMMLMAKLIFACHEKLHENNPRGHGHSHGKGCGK
Description: FIG. 19: Accumulation of [^99mTc]FEB054 in the inflamed ear and muscle in a mouse model of contact dermatitis (ICD). The tracer was intravenously in a mouse model of contact dermatitis of the left ear in WT mice (=inflamed, right hand side) at a dose of 66 MBq per mouse and measured 0-60 min post injection.
Mice were injected and scanned under isoflurane/oxygen inhalation anaesthesia (1.4-1.8% isoflurane, 0.5 l O2/min). All animals were injected with a target dose of 2.5 MBq/g body weight) and a total injection volume ≤150 μl. […] Data analysis was performed by CT based definitions of regions-of-interest and quantitative mesurements are expressed as kBq/mL.
ICD was induced by the application of 20 μl 1% croton oil in olive oil-acetone (1:4) to the ventral surface of the left ear of mice for 24 h (n=5 per group), whereas the right ear served as a control. […] In the Cy7 channel the quantum yield is much lower compared to the Cy5.5 channel, which means that the recorded signal with Cy5.5-CES271 is higher than compared to […] (right image; FIG. 21). […] The labelling efficacy (dye/antibody ratio) was determined on the basis of ultraviolet-spectra of the purified dye-antibody compound using PBS as a reference buffer. […]

[2] = Biodistribution and elimination of [99mTc]FEB054 in healthy Balb/c mice (SPECT/CT); assay type: in vivo
Description: FIG. 18: Biodistribution (A) and elimination (B) of [^99mTc]FEB054 in healthy Balb/c mice. The tracer was intravenously injected at a dose of 62 MBq per mouse. The tracer accumulation and elimination was measured 0-90 min post injection.
Mice were injected and scanned under isoflurane/oxygen inhalation anaesthesia (1.4-1.8% isoflurane, 0.5 l O2/min). All animals were injected with a target dose of 2.5 MBq/g body weight) and a total injection volume ≤150 μl. For the image acquisition we used a NanoSPECT/CT-Plus preclinical camera (Mediso Medical Imaging Systems; Hungary), a 4-head gamma camera equipped with multi-pinhole collimators and a cone beam CT imaging system. In the shown studies we employed 9 pinholes/head with a diameter of 1.0 mm and a field of view of 30 mm×16 mm. 10 projections/scan and 60 seconds/projection resulting in a minimum of 100 kcounts/projection (in order to achieve high quality images with high statistics) were acquired. At the end of the SPECT measurement a CT scan was performed (same FOV as the SPECT scan) (55 kVp; 180 projections/rotation; 500 ms exposure time and 1 mm pitch with constant statistics). Data analysis was performed by CT based definitions of regions-of-interest and quantitative mesurements are expressed as kBq/mL.

[3] = Human blood serum stability at 37 °C (gradient HPLC); assay type: in vitro ADME; conditions: freshly prepared human blood serum, over 120 min
Description: FIG. 17: Human serum blood stability of [^99mTc]FEB054. […] Blood serum stability was tested in freshly prepared human blood serum at 37° C. Samples were taken after 10, 20, 30, 60, 90 and 120 minutes and analysed using a gradient HPLC system. 5 MBq of [^99mTc]FEB054 in 20 μL PBS buffer was added to 200 μL of a freshly prepared human blood serum sample and incubated at 37° C. After 10, 20, 30, 60, 90 and 120 minutes, 20 μL were separated and diluted with 50 μL dichloromethane and 50 μL methanol. After centrifugation, 10 μL of the solution were analyzed via gradient-HPLC using a Knauer system with two Smartline 1000 pumps, Smartline UV detector 2500 (Herbert Knauer GmbH), a GabiStar γ-detector (Raytest lsotopenmessgeräte GmbH) and a reversed phase C18 column (Nucleosil 100-5 C-18 column 4.6 mm×250 mm). Eluent A: water (0.1% TFA). Eluent B: Methanol (0.1% TFA). […]
Blood serum stability was tested in freshly prepared human blood serum at 37° C. […] Samples were taken after 10, 20, 30, 60, 90 and 120 minutes and analysed using a gradient HPLC system. […] After centrifugation, 10 μl of the solution were analysed via gradient-HPLC using a Knauer system with two Smartline1000 pumps, Smartline UV-detector 2500 (Herbert Knauer GmbH), a GabiStar γ-detector (Raytest lsotopenmessgeräte GmbH) and a reverse phase […] column 4.6 mm×250 mm). […]

S100A9 [4] = biological target: T1, S100A9; test: Collagen induced arthritis mouse model, SPECT/CT; assay type: in vivo, DBA/1j mice; conditions: 55 MBq per mouse i.v.
Description: FIG. 20: Accumulation of [^99mTc]FEB054 in a mouse model of collagen induced arthritis. The tracer was intravenously injected at a dose of 55 MBq per mouse. […] The tracer distribution was measured in vivo 60 min post injection using SPECT/CT.
Induction and imaging of CIA: Arthritis was induced in DBA/1j mice by injection of bovine collagen type II. Bovine collagen type II (bCII, MD Biosciences) was dissolved in 0.05 M acetic acid at a concentration of 2 mg/ml. DBA/1j mice were injected subcutaneously at the tail base with 100 μg bCII emulsified in CFA (Difco) and boostered on day 21 with 100 μg bCII in IFA at the same location. Mice were regularly inspected from day 14 after disease induction and scored for swelling, erythema and deformation of each joint three times a week. Imaging was performed after arthritis was clinically detectable in the majority of treated animals at indicated time points after tracer application of either Cy5.5-CES271 or [99mTc]FEB054.
SPECT/CT imaging of inflamed joints was recorded 1 h after iv injection of [99mTc]FEB054 (55 MBq of [99mTc]FEB054 per mouse). Individual feet of the mice were analysed separately according to the histological score. […] Even single affected joints could be clearly identified.

## fac-[^99mTc(CO)3(5-ethyl-4-hydroxy-1-methyl-N-{1-(1-methyl-1H-imidazol-2-yl)-2-[(1-methyl-1H-imidazol-2-yl)methyl]-5,8,11-trioxa-2-azatridecan-13-yl}-2-oxo-N-phenyl-1,2-dihydroquinoline-3-carboxamide)]^+ [[^99mTc]FEB054]
S100A9 [1]; 45 minutes post injection
  Tracer uptake in the inflamed ear compared to the healthy control ear: higher tracer uptake
S100A9 [1]; dynamic imaging 0-60 min post injection
  Uptake ratios inflamed ear versus blood and muscle: increasing uptake ratios
[2]; 62 MBq per mouse i.v.
  Accumulation of the tracer in the liver and intestines: intensive accumulation
  Time of hepato-biliary elimination: ≤ 20 min
[2]; 62 MBq per mouse i.v., 0-90 min post injection
  Route of elimination: predominant hepato-biliary elimination
[2]; 62 MBq per mouse i.v., first 10 minutes
  Tracer availability in the blood: good tracer availability in the blood
[2]; mouse, in vivo
  Blood half-life: suitable
[3]
  Human blood serum stability (decomposition): very good; also recorded: no decomposition
S100A9 [4]; 1 h after injection
  Correlation of SPECT signal with clinical scoring: excellent correlation
S100A9 [4]; 60 min post injection
  Tracer accumulation in inflamed joints of the hind limbs versus healthy control mouse: tracer accumulation in the inflamed joints
  Tracer accumulation in liver, intestines, kidneys and urinary bladder: intensive tracer accumulation

From patent publication US10350315B2, “Quinoline-3-carboxamide compounds and their use in diagnosis” (Westfaelische Wihelms-Universitaet Muenster, priority 2014, dated 2019)
